# Measured values reported in US12029732B2, “Treatment of vascular and lymphatic disease” (priority 2019, dated 2024).
# Entries after “also recorded” stand apart in the source; their conditions may differ.
# Assays:
# [1] = test system: RP27M4 (Rpl27a^low/+:Mdm4^+/−) mice; assay: PFT / c-PFT treatment of pregnant mice carrying RP27M4 embryos (high-p53 lymphedema model); type: in vivo, mouse; conditions: for ratio of mutant pups at birth: RP27M4; for ratio of mutant pups at birth / edema: mothers treated daily from E11.5; for cutaneous hemorrhaging / embryonic (in utero) lethality: RP27M4 mutants, mothers treated daily from E11.5 until delivery; for edema: RP27M4 pups
# Procedure: (§1) All mice were maintained on a C57BL/6J background. For timed pregnancies, the first day of observed plug were recorded as day 0.5 post-coitum or embryonic day 0.5 (E0.5). Mice haploinsufficient for the ribosomal protein L27a (Rpl27^low/+) are crossed with Mdm2 or Mdm4 heterozygous mice (Mdm2^+/− or Mdm4^+/−) to generate WT, Rpl27^low/+, Mdm2^+/−, Rpl27^low/+:Mdm2^+/− (RP27M2), Mdm4^+/−, and Rpl27^low/+:Mdm4^+/− mice (RP27M4). To generate mice on a p53-deficient background, we crossed Rpl27^low/+ mice to Mdm2^−/−:p53^−/− or Mdm4^−/−:p53^−/− mice. We therefore obtained RP27M2:p53^+/− mice and RP27M4:p53^+/− mice (FIG. 8). Genotypes were determined by PCR analysis of extracted DNA from tails using published primer sets for Mdm2, Mdm4, and p53. The sex of embryos was determined by detection of Sry and Raspn genes by PCR. Animal care and euthanasia guidelines of the Colorado Institutional Animal Care and Use Committee were followed for all animal work.
# (§2) A 10 mM stock of Pifithrin-α (PFT-α, Selleck Bio, cat. S2929) was diluted 1:10 in 1×PBS, protected from light and used instantly. Pregnant mice were injected intraperitoneally from E11.5 to E16.5 and subcutaneously from E17.5 until delivery at 2.2 mg/kg of weight. Animal were monitored daily post-treatment and weights were recorded after delivery.
# (§3) Tissues were fixed in 4% neutral buffered paraformaldehyde, processed, and embedded in paraffin by the UCD Research Histology core. Sagittal sections (5 μm) were subjected to immunofluorescence staining (IF) as previously described and according to the manufacturer's recommendations. The primary antibodies used for IF were monoclonal mouse Prox-1 (1:50, P21936, Thermofisher Scientific, Massachusetts, USA), monoclonal rabbit Lyve-1 (1:100, ab14917, Abcam Inc., California, USA), polyclonal rabbit Ki-67 (1:1000, VP-K451, Vector Laboratories, California, USA) and mouse monoclonal p21 (1:100, sc-6246, Santa Cruz Biotechnology, California, USA) antibodies. We used anti-rabbit or anti-mouse Alexa Fluor 594 or Alexa Fluor 488 conjugated secondary antibodies (1:1000, Invitrogen, California, USA), captured the images on a Nikon Eclipse 90i, and quantified using the ImageJ software. Pediatric lymphatic edema was categorized using the ISSVA Classification of Vascular Anomalies and confirmed by PdPn (D2-40 antibody, Ventana or RnD Systems AF3670) staining. IHC for p53 on human tissues were performed using the D-07 antibody (Ventana) on automated strainers (Ventana Ultra) following the manufacturer's recommendations and Clinical Laboratory Improvement Amendments (CLIA) certified procedures. For the visualization of the three-dimensional lymphatic vasculature, murine skin were fixed in 4% Paraformaldehyde (PFA) for 2-4 hours at room temperature for whole mount staining. Tissues were then subjected to procedures as published. H&E was performed following Harris protocols for staining.
# (§4) To confirm the contribution of p53 overexpression to lymphedema, a pharmacological approach was used by testing a known reversible p53 negative modulator, Pifithrin-α (PFT). For this, time mating of Rpl27^low/+ mice was set up with Mdm2^+/−, or Mdm4^+/−, mice. Females carrying both models were injected intraperitoneally (IP) daily from E11.5 to […] and their weight gain was recorded until delivery. […] 100% of PFT-RP27M4 mice died did shortly after birth. […] It was speculated that the extent of phenotypic rescue at the low PFT dose used may be determined by the severity of the presentation. Therefore, increasing the amount of PFT given to the RP27M4 carrying mothers may allow for RP27M4 pups to survive.
# [2] = test system: RP27M2 (Rpl27a^low/+:Mdm2^+/−) mice; assay: PFT / c-PFT treatment of pregnant mice carrying RP27M2 embryos (high-p53 lymphedema model); type: in vivo, mouse; conditions: for ratio of mutant pups at birth: RP27M2; for ratio of mutant pups at birth / edema: mothers treated daily from E11.5; for cutaneous hemorrhaging / embryonic (in utero) lethality: RP27M2 mutants, mothers treated daily from E11.5 until delivery; for edema: RP27M2 pups
# Procedure: as §1, §2, §3, §4
# [3] = DMSO; cited from earlier work
compound,measurement,setting,value
"Br.Cc1ccc(C(=O)Cn2c3c(sc2=N)CCCC3)cc1 [PFT, 2-[2-Imino-4,5,6,7-tetrahydrobenzothiazol-3-yl]-1-p-tolylethanone hydrobromide]",pups died shortly after birth,"[1]; PFT-RP27M4 mice, 2.2 mg/kg to mothers",100%
same,"subcutaneous edema, H&E staining of dorsal skin","[1]; RP27M4, P0 skin",no evident subcutaneous edema
same,"lymphatic vessel size, Lyve-1 staining of skin","[1]; RP27M4, postnatal day 0 (P0)",reverted to a normal size
same,ratio of mutant pups at birth,[1]; hydrobromide,born following a Mendelian ratio; also recorded: born at a Mendelian ratio
same,ratio of mutant pups at birth,"[1]; listed as PFT-a, hydrobromide",born at Mendelian ratio
same,cutaneous hemorrhaging,[1]; hydrobromide,reversed symptoms of edema and hemorrhaging; also recorded: eliminates visible skin hemorrhaging; also recorded: no signs of hemorrhaging
same,embryonic (in utero) lethality,[1]; hydrobromide,rescued; also recorded: rescues in utero lethality
same,cutaneous hemorrhaging,"[1]; listed as PFT-a, hydrobromide",do not exhibit cutaneous hemorrhaging
same,postnatal survival,[1]; RP27M4 pups after PFT treatment of mothers,did not survive past the first day
same,edema,[1]; hydrobromide,reversed symptoms of edema and hemorrhaging; also recorded: considerably reduced
same,edema,"[1]; listed as PFT-a, hydrobromide",do not exhibit cutaneous hemorrhaging and severe edema
same,appearance of treated pups compared with WT,[2]; PFT-RP27M2 mice,indistinguishable from WT
same,pups survived until at least 10 days old,"[2]; PFT-RP27M2 mice, 2.2 mg/kg to mothers",100%
same,"subcutaneous edema, H&E staining of dorsal skin","[2]; RP27M2, P0 skin",no evident subcutaneous edema
same,"lymphatic vessel size, Lyve-1 staining of skin","[2]; RP27M2, postnatal day 0 (P0)",reverted to a normal size
same,ratio of mutant pups at birth,[2]; hydrobromide,born following a Mendelian ratio; also recorded: born at a Mendelian ratio
same,ratio of mutant pups at birth,"[2]; listed as PFT-a, hydrobromide",born at Mendelian ratio
same,cutaneous hemorrhaging,[2]; hydrobromide,reversed symptoms of edema and hemorrhaging; also recorded: eliminates visible skin hemorrhaging; also recorded: no signs of hemorrhaging
same,embryonic (in utero) lethality,[2]; hydrobromide,rescued; also recorded: rescues in utero lethality
same,cutaneous hemorrhaging,"[2]; listed as PFT-a, hydrobromide",do not exhibit cutaneous hemorrhaging
same,edema,[2]; hydrobromide,reversed symptoms of edema and hemorrhaging
same,edema,"[2]; listed as PFT-a, hydrobromide",do not exhibit cutaneous hemorrhaging and severe edema
same,solubility,[3],soluble
"Br.Cc1ccc(-c2cn3c4c(sc3n2)CCCC4)cc1 [c-PFT, Cyclic pifithrin-α hydrobromide]",cutaneous hemorrhaging,[1],eliminates visible skin hemorrhaging
same,embryonic (in utero) lethality,[1]; hydrobromide,rescued; also recorded: rescues in utero lethality
same,cutaneous hemorrhaging,[2],eliminates visible skin hemorrhaging
same,embryonic (in utero) lethality,[2]; hydrobromide,rescued; also recorded: rescues in utero lethality
